Where two headings read alike, the source gives them in different places. Numbered stars: 1 amine (or outer) side, 2 acyl side, 3 side chain; on linkers, the order of the positions; unused ones are H or OH. Bridge positions count the residues as written; N and C are the ends. Square brackets hold non-standard residues; d marks the D form. Peptide text beside a SMILES is read from it. * marks the point of attachment. Orn(4R-OH,5R-OH) = O=C([C@H](C[C@@H](O)[C@@H](O)N[*:3])N[*:1])[*:2]; hTyr(3S-OH,4S-OH) = N[C@H](C(=O)O)[C@H](O)[C@@H](O)c1ccc(O)cc1; Pro(3S-OH,4S-Me) = C[C@H]1CN[C@H](C(=O)O)[C@H]1O; Palmitoleoyl = CCCCCC/C=C\CCCCCCCC(=O)*; Oleoyl = CCCCCCCC/C=C\CCCCCCCC(=O)*; Hyp = O=C(O)[C@@H]1C[C@@H](O)CN1; X5 = CCCCCC/C=C/CCCCCCCC(=O)*; Lauroyl = CCCCCCCCCCCC(=O)*
Columns and labels:
Candida albicans A-26 [1] = test: Agar plate disc diffusion test (MIC); assay type: cell-based; conditions: 0.01M sodium borate pH 7.5; 20 μg/disc top, twofold dilutions; 24 hours, 30° C.
Experimental: (§1) Tables II and III give the results of the testing in vitro of the compounds of Examples 1-16 by agar-plate disc-diffusion methods. In Table II activity is measured by the size (diameter in mm.) of the observed zone of inhibition of the microorganism produced by the test compound. In Table III, activity is measured by the minimal inhibitory concentration (MIC) of the substance (μg/dic) required to inhibit growth of the test organism. Table IV gives the results of the testing in vitro of the n-tridecanoyl derivative of A30912A nucleus (Formula III, R is n-C12 H25) against five strains of Candida albicans by the agar dilution method. In […] activity is measured by the minimal inhibitory concentration (MIC) of the substance (μg/ml) required to inhibit the test organism.
(§2) *Compounds were suspended in 0.01M sodium borate solution, pH 7.5. The
(§3) compounds were tested at 20 μg/disc at top level and at twofold
(§4) dilutions until end points were reached. Incubation: 24 hours; 30°

[2] = test system: Trichophyton mentagrophytes #6; test: Agar plate disc diffusion test (MIC); assay type: cell-based; conditions: 0.01M sodium borate pH 7.5; 20 μg/disc top, twofold dilutions; 24 hours, 30° C.
Experimental: as §1, §2, §3, §4

Candida albicans A-26 [3] = test: Agar plate disc diffusion test (zone of inhibition); assay type: cell-based; conditions: suspension in methanol 1 mg/ml, 7mm disc; 24-48 hours at 25-37° C.
Experimental: as §1
(§5) ^(a) Compounds were tested as suspension in methanol at a
(§6) concentration of 1 mg/ml. by dipping a 7mm disc into the suspension and
(§7) placing it on the agar surface. Incubation: 24-48 hours at 25-37°

Neurospora crassa 846 = test: as above; assay type: cell-based; conditions: Neurospora crassa, 846, suspension in methanol 1 mg/ml, 7mm disc
Experimental: as §1, §5, §6, §7

[4] = Blood levels after oral administration in mice (bioassay vs. Aspergillus montevidensis A35137); conditions: mouse, in vivo; for Blood Levels After Oral Administration In Mice: 240 min
Description: determined by bioassay vs. Aspergillus montevidensis A35137.

Candida albicans A-26 [5] = test: In vivo activity against Candida albicans A-26 infection in mice; parameters: species or system mice infected with Candida albicans A-26; conditions: mice, subcutaneous; for ED50 / minimal effective dose: Candida albicans, A26, sc, 24 h; for ED50: increase in survival time, read-out: ED50; for minimal effective dose: read-out: Lowest Active Dose
Experimental: The results of in vivo tests to evaluate the effectiveness of the compound of Examples 1-16 against an infection caused by Candida albicans A-26 in mice are given in Table V, where activity is measured by the ED50 value (the dose in mg/kg. required to cure 50% of the test animals). Where an ED50 value was not obtained, activity is indicated by the lowest dose at which a significant anti-fungal effect is observed. In this test, groups of male albino mice (specific pathogen free), weighing 18 to 20 grams, are infected intravenously with Candida albicans A-26. The animals are X-irradiated 24 hours prior to infection at about 50 roentgens per minute for 8 minutes (400 total dose) to reduce immune responses to the infecting organism. At 0, 4, and 24 hours post infection each group of mice is given graded doses subcutaneously of the test compound as a suspension in 33% polyethylene glycol-water. The day of death for each animal is recorded.
mg/kg. Dosages given 0, 4, and 24 hours post injection as suspension of
test compound in 30% PEG--H2 O. Number of mice receiving test
compounds at each dosage level; 6 mice per group. Number of mice in
control (untreated) group: 10 mice per group.
**As measured by increase in survival time of treated animals versus
control, calculated by method of Reed v Mueuch, American J. Hygiene, 27,

[6] = test system: Saccharomyces pastoranius X-52; test: Agar plate disc diffusion test (zone of inhibition); assay type: cell-based, Saccharomyces pastorianus; conditions: X52, suspension in methanol 1 mg/ml, 7mm disc, 24-48 hours at 25-37° C., read-out: Size of zone of inhibition, Saccharomyces pastoranius X-52
Experimental: as §1, §5, §6, §7

[7] = test system: Trichophyton mentagraphytes A-23; test: as above; assay type: cell-based, Trichophyton mentagrophytes; conditions: A23, suspension in methanol 1 mg/ml, 7mm disc
Experimental: as §1, §5, §6, §7

[8] = 24-48 hours at 25-37° C., read-out: Size of zone of inhibition, Neurospora crassa 846
[9] = schedule B (80, 40, 20, 10 mg/kg), 0, 4, 24 hours
[10] = schedule A (40, 20, 15, and 10 mg/kg), 0, 4, 24 hours

SMILES	MIC, Candida albicans A-26 (Candida albicans A-26 [1]) [μg/disc]	MIC, Trichophyton mentagrophytes #6 [2] [μg/disc]	Size of zone of inhibition, Candida albicans A-26 (Candida albicans A-26 [3]) [mm]	zone of inhibition at 1000 µg/mL (Neurospora crassa 846; [8]) [mm]	Blood Levels After Oral Administration In Mice [4] [ng/mL]	ED50 (Candida albicans A-26 [5]; [9]) [mg/kg]	minimal effective dose (Candida albicans A-26 [5]; [9]) [mg/kg]	zone of inhibition at 1000 µg/mL [6] [mm]	concentration at 4 h ([4]; po, 416 mg/kg) [ng/mL]	ED50 (Candida albicans A-26 [5]; [10]) [mg/kg]	minimal effective dose (Candida albicans A-26 [5]; [10]) [mg/kg]	zone of inhibition at 1000 µg/mL (Neurospora crassa 846; *distinct measurable zone of inhibition with regrowth of organism around disc, read-out: Size of zone of inhibition, Neurospora crassa 846 (*)) [mm]	zone of inhibition at 1000 µg/mL ([7]; *distinct measurable zone of inhibition with regrowth of organism around disc, read-out: Size of zone of inhibition, Trichophyton mentagraphytes A-23 (*)) [mm]	zone of inhibition at 1000 µg/mL ([7]; 24-48 hours at 25-37° C., read-out: Size of zone of inhibition, Trichophyton mentagraphytes A-23) [mm]	Lowest Active Dose (Candida albicans A-26 [5]; [10]) [mg/kg]
CCCCCCCCCCCC(=O)N[C@H]1C[C@@H](O)[C@@H](O)NC(=O)[C@@H]2[C@@H](O)[C@@H](C)CN2C(=O)[C@H]([C@@H](C)O)NC(=O)[C@H]([C@H](O)[C@@H](O)c2ccc(O)cc2)NC(=O)[C@@H]2C[C@@H](O)CN2C(=O)[C@H]([C@@H](C)O)NC1=O [Example 1] (Lauroyl-[Orn(4R-OH,5R-OH)]T[Hyp][hTyr(3S-OH,4S-OH)]T[Pro(3S-OH,4S-Me)]; lactam 1-C)	1.25	0.078	25	40	0	62	20	16	–	–	–	–	–	–	–
CCCCCC/C=C\CCCCCCCC(=O)N[C@H]1C[C@@H](O)[C@@H](O)NC(=O)[C@@H]2[C@@H](O)[C@@H](C)CN2C(=O)[C@H]([C@@H](C)O)NC(=O)[C@H]([C@H](O)[C@@H](O)c2ccc(O)cc2)NC(=O)[C@@H]2C[C@@H](O)CN2C(=O)[C@H]([C@@H](C)O)NC1=O [Example 4] (Palmitoleoyl-[Orn(4R-OH,5R-OH)]T[Hyp][hTyr(3S-OH,4S-OH)]T[Pro(3S-OH,4S-Me)]; lactam 1-C)	–	< 0.039	–	–	–	–	–	–	190	> 40	20	–	–	–	–
CCCCCC/C=C/CCCCCCCC(=O)N[C@H]1C[C@@H](O)[C@@H](O)NC(=O)[C@@H]2[C@@H](O)[C@@H](C)CN2C(=O)[C@H]([C@@H](C)O)NC(=O)[C@H]([C@H](O)[C@@H](O)c2ccc(O)cc2)NC(=O)[C@@H]2C[C@@H](O)CN2C(=O)[C@H]([C@@H](C)O)NC1=O [Example 3] (X5-[Orn(4R-OH,5R-OH)]T[Hyp][hTyr(3S-OH,4S-OH)]T[Pro(3S-OH,4S-Me)]; lactam 1-C)	–	–	24	–	–	–	–	19	–	40	20	40	50	–	–
CCCCCCCC/C=C\CCCCCCCC(=O)N[C@H]1C[C@@H](O)[C@@H](O)NC(=O)[C@@H]2[C@@H](O)[C@@H](C)CN2C(=O)[C@H]([C@@H](C)O)NC(=O)[C@H]([C@H](O)[C@@H](O)c2ccc(O)cc2)NC(=O)[C@@H]2C[C@@H](O)CN2C(=O)[C@H]([C@@H](C)O)NC1=O [Example 7] (Oleoyl-[Orn(4R-OH,5R-OH)]T[Hyp][hTyr(3S-OH,4S-OH)]T[Pro(3S-OH,4S-Me)]; lactam 1-C)	0.625	–	23	18	0	–	–	19	–	–	10	–	–	1	20

Source: patent US4320052A, “Derivatives of A-30912A nucleus” (Eli Lilly and Company, priority 1980, dated 1982)
